For one experiment, the target named is DHODH (Homo sapiens (Human), UniProt Q02127). As to the kind of experiment: DHODH activity assay (coupled enzyme assay, DCIP reduction, absorbance at 610 nm). The format is biochemical. The settings on record: for inhibition at 10 µM: compound at 10 uM, read-out: inh @ 10 uM hDHODH (%).
The next experiment deals with Jurkat cells. As to the kind of experiment: Measurement of cell proliferation (Jurkat cell), XTT assay. The class given is cell-based. The settings on record: Homo sapiens, Jurkat; for EC50: 72 h, XTT cell viability; for inhibition at 1 µM: compound at 1 uM, read-out: % inh Jurkat_cells @ 1 uM (%). Summed up: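 Jurkat T cells, 100,000 per well in RPMI with 10% FBS, exposed 72 h at 37 °C to serial compound dilutions (typically from 10 μM, half-log steps, triplicate) at 0.25–0.5% DMSO. Viability by XTT/PMS, A465 after 2 h, media background subtracted, untreated cells as 100%; EC50 from curve fit.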
A general note: Tetrazolium assays rely on reduction of a dye to a coloured formazan, in cell work by metabolically active cells.

Structures are written as SMILES.

We go through 51 compounds from patent US9006454B2, “Dihydroorotate dehydrogenase inhibitors” (Merck Serono S.A., priority 2009, dated 2015).

Sequence of DHODH (Q02127 whole entry): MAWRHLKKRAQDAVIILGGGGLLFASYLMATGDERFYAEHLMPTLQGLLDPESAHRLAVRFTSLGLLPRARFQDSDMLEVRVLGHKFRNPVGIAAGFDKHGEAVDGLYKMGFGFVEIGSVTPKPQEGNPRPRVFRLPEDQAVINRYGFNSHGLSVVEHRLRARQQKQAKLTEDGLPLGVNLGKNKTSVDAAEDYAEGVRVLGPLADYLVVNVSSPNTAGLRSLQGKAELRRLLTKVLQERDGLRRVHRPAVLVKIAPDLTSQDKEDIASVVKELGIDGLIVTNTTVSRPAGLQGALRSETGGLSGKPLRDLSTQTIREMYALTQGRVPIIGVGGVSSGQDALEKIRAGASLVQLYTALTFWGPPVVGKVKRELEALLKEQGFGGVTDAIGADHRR

By IC50 is commonly meant the midpoint of a concentration-inhibition curve. Read a high IC50 as lower potency. One may read the EC50 as the midpoint of the concentration-response curve. Low values mean greater potency, high ones weaker potency. As to `Cc1cc(C(=O)O)c2nc(-c3c(F)c(F)c(-c4ccccc4F)c(F)c3F)[nH]c2c1` [I140], at DHODH, the IC50 was 3.5 nM and the inhibition at 10 µM was 100%. In addition, in the experiment on Jurkat cells, it took 33 nM to reach a half-maximal effect (EC50) and the inhibition at 1 µM is 101%.
As for `Cc1cc(C(=O)O)c2nc(-c3c(F)c(F)c(-c4cccnc4)c(F)c3F)[nH]c2c1` [I141], on DHODH, the IC50 stood at 32 nM and the inhibition at 10 µM was found to be 92.5%. Besides, in the experiment on Jurkat cells, the response was half-maximal at 2600 nM (EC50) and the inhibition at 1 µM was 86.9%.
`Cc1cc(C(=O)O)c2nc(-c3ccc(-c4ccc(Oc5ccccc5C=O)cc4)cc3)[nH]c2c1` [I142]: at DHODH, the IC50 was found to be 1050 nM and the inhibition at 10 µM was found to be 84.7%. For the same compound, in the experiment on Jurkat cells, the inhibition at 1 µM worked out at 54.5%.
In the case of `Cc1cc(C(=O)O)c2nc(-c3ccc(-c4ccc(OCc5ccccc5)cc4)cc3)[nH]c2c1` [I143], on DHODH, the IC50 amounted to 1230 nM and the inhibition at 10 µM worked out at 87%. The inhibition at 1 µM with Jurkat cells amounted to 42.2%.
The matching figures for `O=C(O)c1cccc2[nH]c(-c3c(F)c(F)c(-c4ccsc4)c(F)c3F)nc12` [I144]: 441 nM, 89.8% and 68.2%.
Taken in the same sequence, the figures for `Cc1cc(C(=O)O)c2nc(-c3c(F)c(F)c(-c4ccc(F)c(F)c4)c(F)c3F)[nH]c2c1` [I145] were 314 nM, 95.6% and 75.8%.
As for `Cc1cc(C(=O)O)c2nc(-c3c(F)c(F)c(-c4cc(F)cc(F)c4)c(F)c3F)[nH]c2c1` [I146], at DHODH, it took 21 nM to reach half-maximal inhibition (IC50) and the inhibition at 10 µM came to 96.4%. Moreover, in the experiment with Jurkat cells, the EC50 turned out to be 13 nM and the inhibition at 1 µM was 89.9%.
Regarding `O=C(O)c1cccc2[nH]c(-c3c(F)c(F)c(-c4cccc(OC(F)(F)F)c4)c(F)c3F)nc12` [I148], on DHODH, the IC50 was determined as 218 nM and the inhibition at 10 µM was 103%. Besides, the inhibition at 1 µM with Jurkat cells was 88.6%.
The matching figures for `Cc1cc(C(=O)O)c2nc(-c3ccc(-c4cccs4)cc3)[nH]c2c1` [I149]: 1680 nM, 88.4% and 47.5%.
As for `Cc1cc(C(=O)O)c2nc(-c3ccc(-c4cccc(NC(=O)C5CCCN5)c4)cc3)[nH]c2c1` (stereo not drawn) [I150], the inhibition at 10 µM on DHODH turned out to be 30.5%. Also, the inhibition at 1 µM in the experiment on Jurkat cells turned out to be 15.4%.
The matching figures for `Cc1cc(C(=O)O)c2nc(-c3ccc(-c4ccc(OCCN5CCCC5)cc4)cc3)[nH]c2c1` [I151]: 67.9% and 16%.
Taken in the same sequence, the figures for `Cc1cc(C(=O)O)c2nc(-c3ccc(-c4ccc(OCCCN5CCCC5)cc4)cc3)[nH]c2c1` [I152] were 47.2% and 23.8%.
Taken in the same sequence, the figures for `Cc1cc(C(=O)O)c2[nH]c(-c3ccc(-c4cccc(OCCC5CCNCC5)c4)cc3)nc2c1` [I153] were 53.4% and 15.1%.
In the case of `Cc1cc(C(=O)O)c2[nH]c(-c3ccc(-c4ccc(OCCN5CCCCC5)cc4)cc3)nc2c1` [I154], the inhibition at 10 µM on DHODH was 49.1%. Further, the inhibition at 1 µM in the experiment with Jurkat cells came out at 8.7%.
The matching figures for `Cc1cc(C(=O)O)c2[nH]c(-c3ccc(-c4cccc(OC5CCNCC5)c4)cc3)nc2c1` [I155]: 48.5% and 14.2%.
Consider `Cc1cc(C(=O)OCCO)c2[nH]c(-c3c(F)c(F)c(-c4ccccc4)c(F)c3F)nc2c1` [I156], for which the inhibition at 10 µM on DHODH was 69.1%. For the same compound, the inhibition at 1 µM in the experiment on Jurkat cells was 31.4%.
The matching figures for `O=C(O)c1cccc2nc(-c3ccc(-c4ccc(OCCO)cc4)cc3)[nH]c12` [I157]: 51.8% and 15.5%.
The matching figures for `Cc1cc(C(=O)NC2CCCC2)c2[nH]c(-c3c(F)c(F)c(-c4ccccc4)c(F)c3F)nc2c1` [I158]: 48.5% and 6.5%.
With `Cc1cc(-c2nnc(O)o2)c2nc(-c3c(F)c(F)c(-c4ccccc4)c(F)c3F)[nH]c2c1` [I159], the inhibition at 10 µM on DHODH stood at 32.3%. In the experiment with Jurkat cells, the inhibition at 1 µM amounted to 13.4%.
Taken in the same sequence, the figures for `Cc1cc(C(=O)O)c2[nH]c(-c3ccc(-c4ccc(CNC(C)C)cc4)cc3)nc2c1` [I160] were 57.4% and 19.6%.
The matching figures for `Cc1cc(C(=O)O)c2[nH]c(-c3ccc(-c4ccc(CN(C)C)cc4)cc3)nc2c1` [I161]: 43.3% and 9.7%.
The matching figures for `Cc1cc(C(=O)NC(C)C)c2[nH]c(-c3c(F)c(F)c(-c4ccccc4)c(F)c3F)nc2c1` [I162]: 71.3% and 28.5%.
Take `Cc1cc(C(=O)NC2CC2)c2[nH]c(-c3c(F)c(F)c(-c4ccccc4)c(F)c3F)nc2c1` [I163]: the inhibition at 10 µM at DHODH was 75.6%. Further, the inhibition at 1 µM in the experiment with Jurkat cells was determined as 37.7%.
Taken in the same sequence, the figures for `Cc1cc(C(=O)O)c2nc(-c3ccc(-c4ccc(CN5CCCC5)cc4)cc3)[nH]c2c1` [I164] were 59.3% and 12.1%.
The matching figures for `Cc1cc(-c2nnc(O)o2)c2nc(-c3ccc(-c4ccccc4)cc3)[nH]c2c1` [I165]: 46% and 29.7%.
Taken in the same sequence, the figures for `Cc1cc(C(=O)O)c2nc(C#Cc3ccc(OCc4ccccc4)cc3)[nH]c2c1` [I166] were 53.2% and 13.4%.
For `Cc1cc(C(=O)O)c2nc(-c3ccc(-c4ccccc4O)cc3)[nH]c2c1` [I167], the inhibition at 10 µM on DHODH came to 82.7%. Further, in the experiment with Jurkat cells, the inhibition at 1 µM stood at 34.5%.
Taken in the same sequence, the figures for `O=C(O)c1cccc2[nH]c(-c3ccc(-c4ccccc4O)cc3)nc12` [I168] were 85% and 34%.
The matching figures for `O=C(O)c1cccc2[nH]c(-c3ccc(-c4ccccc4OCc4ccccc4)cc3)nc12` [I169]: 72% and 22%.
Turning to `Cc1cc(C(=O)O)c2nc(-c3ccc(-c4ccc(CO)cc4)cc3)[nH]c2c1` [I170], the inhibition at 10 µM at DHODH was 84%. Further, in the experiment on Jurkat cells, the inhibition at 1 µM came out at 57%.
The matching figures for `Cc1cc(C(=O)O)c2nc(-c3ccc(-c4ccc(Oc5ccccn5)cc4)cc3)[nH]c2c1` [I171]: 86% and 35%.
Consider `O=C(O)c1cccc2[nH]c(-c3ccc(-c4ccc(Oc5ccccn5)cc4)cc3)nc12` [I172], for which the inhibition at 10 µM on DHODH was 60%. In addition, the inhibition at 1 µM with Jurkat cells stood at 21%.
On to `O=C(O)c1cccc2[nH]c(-c3ccc(-c4ccc(CO)cc4)cc3)nc12` [I173], for which the inhibition at 10 µM on DHODH is 80%. Also, the inhibition at 1 µM with Jurkat cells is 44%.
In the case of `Cc1cc(C(=O)O)c2nc(-c3ccc(-c4ccc(S(N)(=O)=O)cc4)cc3)[nH]c2c1` [I174], on DHODH, the inhibition at 10 µM was determined as 43%. The inhibition at 1 µM in the experiment with Jurkat cells stood at 9%.
Taken in the same sequence, the figures for `N#Cc1ccccc1Oc1ccc(-c2ccc(-c3nc4c(C(=O)O)cccc4[nH]3)cc2)cc1` [I175] were 30% and 15%.
Taken in the same sequence, the figures for `COC(=O)c1cc(C)cc2[nH]c(-c3c(F)c(F)c(-c4ccccc4)c(F)c3F)nc12` [I176] were 45% and 7%.
The matching figures for `O=C(O)c1cccc2[nH]c(-c3ccc(-c4ccc(O)cc4)cc3)nc12` [I177]: 51.3% and 40.5%.
Turning to `Cc1cc(C(=O)O)c2nc(-c3ccc(-c4ccc(Oc5ccc(C#N)cc5)cc4)cc3)[nH]c2c1` [I178], the inhibition at 10 µM at DHODH came to 53.3%. The inhibition at 1 µM in the experiment on Jurkat cells came to 37.6%.
The matching figures for `N#Cc1ccc(Oc2ccc(-c3ccc(-c4nc5c(C(=O)O)cccc5[nH]4)cc3)cc2)cc1` [I179]: 45.8% and 10.1%.
The matching figures for `O=Cc1ccc(Oc2ccc(-c3ccc(-c4nc5c(C(=O)O)cccc5[nH]4)cc3)cc2)cc1` [I180]: 30.5% and 9.8%.
Regarding `O=Cc1ccc(-c2ccc(-c3nc4c(C(=O)O)cccc4[nH]3)cc2)cc1` [I181], the inhibition at 10 µM on DHODH stood at 40.4%. For the same compound, the inhibition at 1 µM with Jurkat cells came to 9.4%.
The matching figures for `O=C(O)c1cccc2[nH]c(-c3ccc(-c4ccc(OCc5ccccn5)cc4)cc3)nc12` [I182]: 57.7% and 26.9%.
Taken in the same sequence, the figures for `O=C(O)c1cccc2[nH]c(-c3ccc(-c4ccc(OCc5ccncc5)cc4)cc3)nc12` [I183] were 63.9% and 23.5%.
For `O=C(O)c1cccc2[nH]c(-c3ccc(-c4ccc(OCc5cccnc5)cc4)cc3)nc12` [I184], the inhibition at 10 µM on DHODH was 53.3%. The inhibition at 1 µM in the experiment with Jurkat cells is 25.4%.
In the case of `Cc1ccc(C)n1-c1ccc(-c2nc3cccc(C(=O)O)c3[nH]2)cc1` [I185], the inhibition at 10 µM on DHODH was determined as 59.4%. In the experiment with Jurkat cells, the inhibition at 1 µM turned out to be 21.5%.
Taken in the same sequence, the figures for `Cn1cc(-c2ccc(-c3nc4cccc(C(=O)O)c4[nH]3)cc2)cn1` [I186] were 31.9% and 13.5%.
The matching figures for `Cc1cc(C(=O)O)c2[nH]c(-c3ccc(-c4ccccc4)cc3)cc2c1` [I187]: 32.1% and 15.3%.
Taken in the same sequence, the figures for `O=C(O)c1cccc2[nH]c(-c3c(F)c(F)c(Oc4ccccc4)c(F)c3F)nc12` [I188] were 41.5% and 17%.
Take `Cc1cc(C(=O)O)c2nc(-c3c(F)c(F)c(Oc4ccccc4)c(F)c3F)[nH]c2c1` [I189]: the inhibition at 10 µM at DHODH is 39.8%. Besides, the inhibition at 1 µM with Jurkat cells is 3%.
The matching figures for `O=C(O)c1cccc2[nH]c(-c3ccc(-c4ccc(OCc5ccccc5)cc4)cc3)nc12` [I190]: 47.5% and 16.5%.
The matching figures for `Cc1cc(C(=O)O)c2nc(-c3ccc(-c4ccccc4)s3)[nH]c2c1` [I191]: 40.7% and 17.6%.
